Where two headings read alike, the source gives them in different places. Positions of bridges follow the written chain, without caps; N, C: chain ends. Non-standard residues stand in square brackets, D forms with d. Residues, ends and D or L forms follow the SMILES beside them. dPhe(4-NH2) = Nc1ccc(C[C@@H](N)C(=O)O)cc1; dPhe(4-Br) = N[C@H](Cc1ccc(Br)cc1)C(=O)O; dPhe(4-I) = N[C@H](Cc1ccc(I)cc1)C(=O)O; d(hPhe) = N[C@H](CCc1ccccc1)C(=O)O; hCit = NC(=O)NCCCC[C@H](N)C(=O)O; dTic = O=C(O)[C@H]1Cc2ccccc2CN1; Cit = NC(=O)NCCC[C@H](N)C(=O)O; Nle = CCCC[C@H](N)C(=O)O
Columns and labels:
human MC4R = biological target: T1, human MC4R (Homo sapiens, UniProt P32245); assay: split-luciferase cAMP sensor assay, agonist mode (measurement window 1), hMC4R; format: cell-based; conditions: for Emax: read-out: MC4R cAMP % max activation; for EC50: read-out: MC4R cAMP EC50
T1 construct: host or cells: HEK-293 cells stably expressing the GScAMP22F split-luciferase cAMP sensor and hMC4R, G418 selection
Experimental: (§1) The stable cell lines were grown and maintained in selection media consisting of Dulbecco's modified Eagle media (DMEM) with 4.5 g/l D-glucose, and 4 mM L-glutamine (Thermo Fisher Scientific, Waltham, MA), supplemented with 10% fetal bovine serum, 100 units/ml penicillin, 100 μg/ml streptomycin, 2.5 μg/ml amphotericin B, 200 μg/ml hygromycin B (for positive selection of the GScAMP22f luciferase reporter), and Geneticin™ (G418) 700 μg/ml (for MC3R or MC4R selection). Actual serum concentration during the assay is estimated to be about 1%. Cell line identity is routinely verified by qPCR and MC3R-and MC4R-specific oligonucleotides.
(§2) The assay for the determination of the cAMP response in live cells was described previously. […] Cells were seeded at a density of 20,000 cells per well using 384-well poly-D lysine-coated, clear bottom, and black-wall assay plates (Corning Inc. Corning, NJ). Cells were allowed to attach to the plates for 18 to 24 h after which growth media was removed and 20 μl of 4% D-luciferin (Promega) in CO2 independent, serum-free medium (Thermo Fisher Scientific) was added to each well. […] Intracellular cAMP levels were measured using an FDSS 7000EX Functional Drug Screening System (Hamamatsu Photonics, Hamamatsu, Japan) in the Center for Chemical Genomics at the Life Sciences Institute. This instrument allowed the in-line addition of test-peptides and receptor agonists while simultaneously acquiring the luminescence signal from live cells. […] A submaximal forskolin (20 μM) concentration was also included to serve as a normalization reference to account for cell number variations and differences in assay transducer efficiency between cell lines.
(§3) With this set up it was possible to evaluate the direct effect of the test-peptides on the MC3R and MC4R cell lines during measurement window 1, while the antagonist profile in the presence of EC90 α-MSH was determined on measurement window 2. […] EC50 or IC50 potency values were determined by non-linear regression by fitting the data to a sigmoid four-parameter variable slope model using the GraphPad Prism version 8.4 software package (San Diego CA).

human MC3R = biological target: T2, human MC3R (Homo sapiens, UniProt P41968); assay: split-luciferase cAMP sensor assay, agonist mode (measurement window 1), hMC3R; format: cell-based; conditions: agonist mode; for Emax: read-out: MC3R cAMP % max activation; for EC50: read-out: MC3R cAMP EC50
T2 construct: expressed in transfected cells; host or cells: HEK-293 cells stably expressing the GScAMP22F split-luciferase cAMP sensor (parent reporter line from Promega); MC3R clone generated in-house, G418 selection
Experimental: as §1, §2, §3

[1] = agonist mode, hMC4R stable cell line
[2] = % maximal activation, agonist mode
[3] = HEK-293 cells stably expressing hMC4R, agonist mode

T2 sequence (P41968 whole entry): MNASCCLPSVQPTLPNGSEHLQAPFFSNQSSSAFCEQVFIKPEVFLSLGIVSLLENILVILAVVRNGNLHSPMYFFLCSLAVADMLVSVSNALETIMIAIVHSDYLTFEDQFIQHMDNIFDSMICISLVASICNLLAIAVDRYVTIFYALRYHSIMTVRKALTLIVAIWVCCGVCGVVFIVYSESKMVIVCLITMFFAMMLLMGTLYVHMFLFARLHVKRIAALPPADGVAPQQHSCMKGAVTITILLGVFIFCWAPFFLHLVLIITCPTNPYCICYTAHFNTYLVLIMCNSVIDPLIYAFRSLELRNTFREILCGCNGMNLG
T1 sequence (P32245 whole entry): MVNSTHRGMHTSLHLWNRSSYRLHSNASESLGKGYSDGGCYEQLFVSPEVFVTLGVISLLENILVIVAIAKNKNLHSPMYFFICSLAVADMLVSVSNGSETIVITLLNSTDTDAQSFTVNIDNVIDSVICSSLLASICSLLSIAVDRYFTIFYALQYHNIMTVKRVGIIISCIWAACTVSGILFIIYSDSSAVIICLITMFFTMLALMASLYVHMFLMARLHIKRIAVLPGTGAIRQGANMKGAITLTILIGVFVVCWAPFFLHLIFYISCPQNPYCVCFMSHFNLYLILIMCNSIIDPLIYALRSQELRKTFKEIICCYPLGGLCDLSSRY

## CC(=O)N[C@@H](CCCNC(=N)N)C(=O)N[C@H]1CSSC[C@@H](C(N)=O)NC(=O)[C@@H](Cc2c[nH]c3ccccc23)NC(=O)[C@H](CCCNC(=N)N)NC(=O)[C@@H](CCc2ccccc2)NC(=O)[C@H](CCCNC(=N)N)NC(=O)[C@@H](C)NC1=O [CTX-1239, Arg-cyclo(Cys-D-Ala-Arg-D-Hph-Arg-D-Trp-Cys)] (Ac-RC[dA]R[d(hPhe)]R[dW]C-NH2; disulfide 2-8)
Human MC4R
  MC4R selectivity vs MC1R: 0.1
  MC4R selectivity vs MC3R: 0.3
Human MC4R; [1]
  MC4R cAMP % max activation: (28%)
Human MC3R; hMC3R stable cell line
  MC3R cAMP % max activation: (7.9%)

## CC(=O)N[C@@H](CCCNC(=N)N)C(=O)N[C@H]1CSSC[C@@H](C(N)=O)NC(=O)[C@@H](Cc2ccccc2)NC(=O)[C@H](CCCNC(=N)N)NC(=O)[C@@H](Cc2ccc(Br)cc2)NC(=O)[C@H](CCCNC(=N)N)NC(=O)[C@@H](C)NC1=O [CTX-1255, Arg-cyclo(Cys-D-Ala-Arg-D-Phe(4-Br)-Arg-D-Phe-Cys)] (Ac-RC[dA]R[dPhe(4-Br)]R[dF]C-NH2; disulfide 2-8 (inferred))
Human MC4R
  MC4R selectivity vs MC1R: 0.05
  MC4R selectivity vs MC3R: 0.24
Human MC4R; [1]
  Emax: 60%
Human MC3R; hMC3R stable cell line
  Emax: 28%

## CC(=O)N[C@@H](CCCNC(=N)N)C(=O)N[C@H]1CSSC[C@@H](C(=O)N[C@@H](CCCCN)C(=O)N2CCC[C@H]2C(=O)N[C@H](C(N)=O)C(C)C)NC(=O)[C@@H](Cc2c[nH]c3ccccc23)NC(=O)[C@H](CCCNC(=N)N)NC(=O)[C@@H](Cc2ccc(Br)cc2)NC(=O)[C@H](CCCNC(=N)N)NC(=O)[C@@H](C)NC1=O [CTX-1216, Arg-cyclo(Cys-D-Ala-Arg-D-Phe(4-Br)-Arg-D-Trp-Cys)-Lys-Pro-Val] (Ac-RC[dA]R[dPhe(4-Br)]R[dW]CKPV-NH2; disulfide 2-8 (inferred))
Human MC4R
  MC4R selectivity vs MC1R: 0.82
  MC4R selectivity vs MC3R: 1.99
Human MC4R; [1]
  Emax: 69%
  EC50: 1.8 nM
Human MC3R; hMC3R stable cell line
  Emax: 11%
  EC50: 3.5 nM

## CC(=O)N[C@@H](CCCNC(=N)N)C(=O)N[C@H]1CSSC[C@@H](C(N)=O)NC(=O)[C@H](Cc2c[nH]c3ccccc23)NC(=O)[C@H](CCCNC(=N)N)NC(=O)[C@H](Cc2ccccc2)NC(=O)[C@H](Cc2c[nH]cn2)NC(=O)[C@@H](C)NC1=O [CTX-1213, Arg-cyclo(Cys-D-Ala-His-Phe-Arg-Trp-Cys)]
Human MC4R; [2]
  Emax: 104%
Human MC3R; % maximal activation
  Emax: 97%

## CC(=O)Nc1ccc(C[C@H]2NC(=O)[C@H](CCCNC(=N)N)NC(=O)[C@@H](C)NC(=O)[C@@H](NC(=O)[C@H](CCCNC(=N)N)NC(C)=O)CSSC[C@@H](C(N)=O)NC(=O)[C@@H](Cc3c[nH]c4ccccc34)NC(=O)[C@H](CCCNC(=N)N)NC2=O)cc1 [CTX-1245, Arg-cyclo(Cys-D-Ala-Arg-D-Phe(4-NH-Ac)-Arg-D-Trp-Cys)] (Ac-RC[dA]R[dPhe(4-NH2)](Ac)R[dW]C-NH2; disulfide 2-8)
Human MC4R; [1]
  Emax: 34%
Human MC3R; hMC3R stable cell line
  Emax: 6.3%

## CC(=O)N[C@@H](CCCNC(=N)N)C(=O)N[C@H]1CSSC[C@@H](C(N)=O)NC(=O)[C@H]2Cc3ccccc3CN2C(=O)[C@H](CCCNC(=N)N)NC(=O)[C@@H](Cc2ccc(Br)cc2)NC(=O)[C@H](CCCNC(=N)N)NC(=O)[C@@H](C)NC1=O [CTX-1256, Arg-cyclo(Cys-D-Ala-Arg-D-Phe(4-Br)-Arg-D-Tic-Cys)] (Ac-RC[dA]R[dPhe(4-Br)]R[dTic]C-NH2; disulfide 2-8 (inferred))
Human MC4R
  MC4R selectivity vs MC1R: 0.003
  MC4R selectivity vs MC3R: 0.08
Human MC4R; [1]
  Emax: 29%
Human MC3R; hMC3R stable cell line
  Emax: 17%

## CC(=O)N[C@@H](CCCNC(=N)N)C(=O)N[C@H]1CSSC[C@@H](C(N)=O)NC(=O)[C@@H](Cc2c[nH]c3ccccc23)NC(=O)[C@H](CCCNC(=N)N)NC(=O)[C@@H](Cc2c[nH]c3ccccc23)NC(=O)[C@H](CCCNC(=N)N)NC(=O)[C@@H](C)NC1=O [CTX-1275, Arg-cyclo(Cys-D-Ala-Arg-D-Trp-Arg-D-Trp-Cys)] (Ac-RC[dA]R[dW]R[dW]C-NH2; disulfide 2-8 (inferred))
Human MC4R
  MC4R selectivity vs MC1R: 0.22
  MC4R selectivity vs MC3R: 0.27
Human MC4R; [1]
  Emax: 24%
  EC50: 906 nM
Human MC3R; hMC3R stable cell line
  MC3R cAMP % max activation: (3.3%)
  EC50: 248 nM

## CCCC[C@H](NC(C)=O)C(=O)N[C@H]1CSSC[C@@H](C(N)=O)NC(=O)[C@@H](Cc2c[nH]c3ccccc23)NC(=O)[C@H](CCCNC(=N)N)NC(=O)[C@@H](Cc2ccc(I)cc2)NC(=O)[C@H](Cc2c[nH]cn2)NC1=O [CTX-1234, Nle-cyclo(Cys-His-D-Phe(4-I)-Arg-D-Trp-Cys)] (Ac-[Nle]CH[dPhe(4-I)]R[dW]C-NH2; disulfide 2-7 (inferred))
Human MC4R
  MC4R selectivity vs MC1R: 0.2
  MC4R selectivity vs MC3R: 1.32
Human MC4R; [1]
  Emax: 16%
  EC50: 2.6 nM
Human MC3R; hMC3R stable cell line
  Emax: 18%

## CC(=O)N[C@@H](CCCNC(=N)N)C(=O)N[C@H]1CSSC[C@@H](C(N)=O)NC(=O)[C@@H](Cc2c[nH]c3ccccc23)NC(=O)[C@H](CCCNC(=N)N)NC(=O)[C@@H](Cc2ccc(Br)cc2)NC(=O)[C@@H]2CCCN2C(=O)[C@@H](C)NC1=O [CTX-1249, Arg-cyclo(Cys-D-Ala-Pro-D-Phe(4-Br)-Arg-D-Trp-Cys)] (Ac-RC[dA]P[dPhe(4-Br)]R[dW]C-NH2; disulfide 2-8)
Human MC4R
  MC4R selectivity vs MC1R: 5.08
  MC4R selectivity vs MC3R: 0.45
Human MC4R; [1]
  Emax: 22%
  EC50: 14 nM
Human MC3R; hMC3R stable cell line
  Emax: 1.9%

## CC(=O)N[C@@H](CCCNC(=N)N)C(=O)N[C@H]1CSSC[C@@H](C(N)=O)NC(=O)[C@H](Cc2c[nH]c3ccccc23)NC(=O)[C@H](CCCNC(=N)N)NC(=O)[C@@H](Cc2c[nH]c3ccccc23)NC(=O)[C@H](CCCNC(=N)N)NC(=O)[C@@H](C)NC1=O [CTX-1274, Arg-cyclo(Cys-D-Ala-Arg-D-Trp-Arg-Trp-Cys)] (Ac-RC[dA]R[dW]RWC-NH2; disulfide 2-8)
Human MC4R
  MC4R selectivity vs MC1R: 0.19
  MC4R selectivity vs MC3R: 0.12
Human MC4R; [1]
  Emax: 77%
  EC50: 1400 nM
Human MC3R; hMC3R stable cell line
  Emax: 5.4%

## CC(=O)N[C@@H](CCCNC(=N)N)C(=O)N[C@H]1CSSC[C@@H](C(N)=O)NC(=O)[C@@H](Cc2c[nH]c3ccccc23)NC(=O)[C@H](CCCNC(=N)N)NC(=O)[C@@H](Cc2ccccc2)NC(=O)[C@H](CCCNC(N)=O)NC(=O)[C@H](C)NC1=O [CTX-1288, Arg-cyclo(Cys-Ala-Cit-D-Phe-Arg-D-Trp-Cys)] (Ac-RCA[Cit][dF]R[dW]C-NH2; disulfide 2-8)
Human MC4R; [2]
  Emax: 87%

## CCCC[C@H](NC(=O)[C@H](CCCNC(=N)N)NC(C)=O)C(=O)N[C@H]1CSSC[C@@H](C(N)=O)NC(=O)[C@H](Cc2ccccc2)NC(=O)[C@H](CCCNC(=N)N)NC(=O)[C@@H](Cc2ccccc2)NC(=O)[C@H](Cc2c[nH]cn2)NC1=O [CTX-1625, Arg-Nle-cyclo(Cys-His-D-Phe-Arg-Phe-Cys)] (Ac-R[Nle]CH[dF]RFC-NH2; disulfide 3-8)
Human MC4R; [2]
  Emax: 101%

## CCCC[C@H](NC(=O)[C@H](CCCNC(=N)N)NC(C)=O)C(=O)N[C@H]1CSSC[C@@H](C(N)=O)NC(=O)[C@H](Cc2c[nH]c3ccccc23)NC(=O)[C@H](CCCNC(=N)N)NC(=O)[C@@H](Cc2ccccc2)NC(=O)[C@H](CCCNC(N)=O)NC1=O [CTX-1607, Arg-Nle-cyclo(Cys-Cit-D-Phe-Arg-Trp-Cys)] (Ac-R[Nle]C[Cit][dF]RWC-NH2; disulfide 3-8 (inferred))
Human MC3R; % maximal activation
  Emax: 47%

## CCCC[C@H](NC(=O)[C@H](CCCNC(=N)N)NC(C)=O)C(=O)N[C@H]1CSSC[C@@H](C(N)=O)NC(=O)[C@H](Cc2c[nH]c3ccccc23)NC(=O)[C@H](CCCNC(=N)N)NC(=O)[C@@H](Cc2ccccc2)NC(=O)[C@H](CCCCNC(N)=O)NC1=O [CTX-1618, Arg-Nle-cyclo(Cys-homo-Cit-D-Phe-Arg-Trp-Cys)] (Ac-R[Nle]C[hCit][dF]RWC-NH2; disulfide 3-8 (inferred))
Human MC4R; [2]
  Emax: 94%
Human MC4R; [3]
  EC50: 1.8 nM

## CC(=O)N[C@@H](CCCNC(=N)N)C(=O)N[C@H]1CSSC[C@@H](C(N)=O)NC(=O)[C@H](Cc2c[nH]c3ccccc23)NC(=O)[C@H](CCCNC(=N)N)NC(=O)[C@@H](Cc2ccccc2)NC(=O)[C@H](CCCNC(=N)N)NC(=O)CNC1=O [CTX-1293, Arg-cyclo(Cys-Gly-Arg-D-Phe-Arg-Trp-Cys)] (Ac-RCGR[dF]RWC-NH2; disulfide 2-8)
Human MC4R; [2]
  Emax: 87%
Human MC4R; [3]
  EC50: 0.25 nM

— patent US20240391954A1, “MC4R AGONIST PEPTIDES” (The Regents of the University of Michigan, priority 2021, published 2024)
